Laboratory results: article PMC10295666 (Bioengineering, 2023)
Positions of bridges follow the written chain, without caps; N, C: chain ends. Residues, ends and D or L forms follow the SMILES beside them. No end group written: not given here.

Assays:
[1] = system: normal human liver cell line 7701; test: Toxicity on normal liver cells; format: cell-based; conditions: QSG-7701 cells
Protocol: Normal human liver cells QSG-7701 and Hepatocellular Carcinoma Cell lines 7721, Huh7, MHCC97H, MHCC97L, and HepG2 were all obtained from the Institute of Biomedical Sciences, Jinan University. All cells were cultured in DMEM medium (Gibco, Grand Island, NE, USA) supplemented with 10% fetal bovine serum (Gibco, Grand Island, NE, USA). The cell lines were incubated in a humidified atmosphere with 5% CO2 at 37 °C.
Cells in the logarithmic growth phase with good viability were seeded into 96-well plates at a density of 2500 cells per well and incubated for 24 h at 37 °C with 5% CO2. The old medium was removed, and the cells were starved with DMEM medium containing 0.5% FBS for 24 h. Peptides were diluted with 0.5% starved medium to different concentrations and added to each well with the same volume. The cells were then incubated for an additional 48 h at 37 °C. After removing the medium, 100 μL of CCK-8 working solution was added to each well, and the plate was incubated for 1 h at 37 °C with 5% CO2. Finally, the absorbance at 450 nm of each well was measured using a multifunctional microplate reader. Cell viability (%) was equal to (Asample − Ablank)/(Acontrol − Ablank) × 100%. […]
Cells in the logarithmic growth phase were seeded at a density of 1000 cells per well in 6-well plates and cultured for 24 h. […] After air-drying the plate, the colonies were photographed and counted.

[2] = system: MHCC97L transplant tumors; test: MHCC97L subcutaneous xenograft model; conditions: 25 mg/kg tail vein injection, monitored every two days for 14 days, n = 4
Protocol: Male BALB/c-nude mice were purchased from Guangdong GemPharmatech Co., Ltd. These mice were fed with food and purified water at room temperature in the SPF laboratory. MHCC97L cells (0.1 mL of physiological saline containing 1 × 10^7 cells) were subcutaneously injected into the armpit of 5-week-old male BALB/c-nude mice. Tumor volume and weight were measured every 2 days, and tumor volume was calculated using the following formula: (short axis)^2 × (long axis)/2. When the tumor volume reached approximately 50 mm^3, these mice were weighed and randomly divided into 3 groups (n = 4): the model group, the SAIF group (25 mg/kg), and the ctSAIF group (25 mg/kg). SAIF and ctSAIF were administered via tail vein injection at a dose of 25 mg/kg. The peptide was dissolved in saline solution to 5 mg/mL, and the dosage volume of each mouse was calculated using the following formula: (25 mg/kg × body weight)/(5 mg/mL). After 14 days of treatment, the mice were sacrificed, and the tumors were collected for histopathological examination.

[3] = In vitro serum stability assay of peptides (HPLC-UV / LC-MS); format: in vitro ADME; conditions: human; serum from healthy individuals mixed with peptide 9:1, peptide 1 mg/mL, 37 °C, 0-1440 min, 10% TFA precipitation, HPLC-UV (C18) peak area
Protocol: The serum obtained from healthy individuals was centrifuged at a low speed and mixed with peptides at a ratio of 9:1 to achieve a peptide concentration of 1 mg/mL. The peptide–serum mixture was then incubated at 37 °C for different periods. After reaching the pre-determined time point (0, 10, 20, 30, 60, 120, 240, 480, 960, or 1440 min), pure trifluoroacetic acid was added to each sample to reach a final concentration of 10%. The mixture was then vortexed and centrifuged for 10 min at 13,000 rpm, and the supernatant (10 μL) was collected and stored in HPLC vials for analysis.
HPLC-UV analysis was performed using a C18 analytical column (Thermo Acclaim300 C18 LC ColuMns, 4.6 mm diameter, 150 mm length, Catalog #: 060266) and a Waters ACQUITY Arc Bio instrument, following the method shown in Table 1. The target peak was determined based on the retention time of pure peptides, and on this basis, detect peptides were degraded at different times and their peak area recorded to generate a degradation curve. The degradation rate of peptides was equal to (Areasample − Areablank)/(Areacontrol − Areablank) × 100%. The area of the blank was equal to the peak area detected after mixing peptides with ultrapure water at the same initial concentration. The signal-to-noise ratio of all collected data was greater than 10. […]

[4] = serum obtained from healthy individuals; conditions: 37 °C, up to 1440 min

| fragment found [4] | Molecule | toxicity on normal human liver cell line 7701 [1] | weight of nude mice during treatment [2] | half-life at 1 mg/mL [3] |
| --- | --- | --- | --- | --- |
|  | KEIDDLNLKVFDLKGKFKRPPLKRVRMSADAML [SAIF] | no significant toxicity |  |  |
|  | CSCC[C@@H]1NC(=O)[C@H](C)NC(=O)[C@H](CC(=O)O)NC(=O)[C@H](C)NC(=O)[C@H](CO)NC(=O)[C@H](CCSC)NC(=O)[C@H](CCCNC(=N)N)NC(=O)[C@H](C(C)C)NC(=O)[C@H](CCCNC(=N)N)NC(=O)[C@H](CCCCN)NC(=O)[C@H](CC(C)C)NC(=O)[C@@H]2CCCN2C(=O)[C@@H]2CCCN2C(=O)[C@H](CCCNC(=N)N)NC(=O)[C@H](CCCCN)NC(=O)[C@H](Cc2ccccc2)NC(=O)[C@H](CCCCN)NC(=O)CNC(=O)[C@H](CCCCN)NC(=O)[C@@H](N)CSSC[C@@H](C(=O)O)NC(=O)[C@H](CC(C)C)NC1=O [ctSAIF] (H-CKGKFKRPPLKRVRMSADAMLC-OH; disulfide 1-22) | no significant toxicity | no significant changes | ~6 h |
| tSAIF (KGKFKRPPLKRVRMSADAML), 2 h | KEIDDLNLKVFDLKGKFKRPPLKRVRMSADAML |  |  |  |
